PubChem BioAssay AID180 (DTP/NCI, 2004)
“And” between values parts separate entries of the source, which are not always exact repeats. Identical values can stand only once.

System: BDF1 mice, Adenocarcinoma 755 s.c., tumor weight T/C
Experiment: NCI In Vivo Anticancer Drug Screen. Data for tumor model Adenocarcinoma 755 (subcutaneous) in B6D2F1 (BDF1) mice
Settings: endpoint: mean tumor weight, schedule: Q01DX011 (ip), higher = larger tumour
Procedure, shortened: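 Tumor-bearing mice receive test compound while controls get vehicle alone. Antitumor effect is scored from survival or tumor dimensions as a T/C quotient.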

[1] = dose: 25.0 mg/kg/injection, vehicle: methylcellulose (MC)
[2] = dose: 3.0 mg/kg/injection, vehicle: carboxymethylcellulose (CMC)
[3] = dose: 6.0 mg/kg/injection, vehicle: carboxymethylcellulose (CMC)
[4] = dose: 50.0 mg/kg/injection, vehicle: carboxymethylcellulose (CMC)
[5] = dose: 100.0 mg/kg/injection, vehicle: carboxymethylcellulose (CMC)
[6] = dose: 200.0 mg/kg/injection, vehicle: carboxymethylcellulose (CMC)
[7] = dose: 125.0 mg/kg/injection, vehicle: saline
[8] = dose: 250.0 mg/kg/injection, vehicle: saline

SMILES: CCCCCCOP(=O)(N1CC1C)N1CC1C (stereo not given)
- T/C (dose: 12.5 mg/kg/injection, vehicle: saline): 100 % of control
- T/C (dose: 100.0 mg/kg/injection, vehicle: saline): 13 % of control and 19 % of control and 26 % of control

SMILES: Cn1c(=O)c2c(nc(N/N=C/C(Cl)Cl)n2C)n(C)c1=O
- T/C (dose: 2.8 mg/kg/injection, vehicle: methylcellulose (MC)): 79 % of control
- T/C (dose: 8.3 mg/kg/injection, vehicle: methylcellulose (MC)): 71 % of control

SMILES: CCn1cnc2c(SC)nc(N)nc21
- T/C (dose: 6.25 mg/kg/injection, vehicle: methylcellulose (MC)): 74 % of control
- T/C (dose: 12.5 mg/kg/injection, vehicle: methylcellulose (MC)): 30 % of control
- T/C [1]: 31 % of control
- T/C (dose: 50.0 mg/kg/injection, vehicle: methylcellulose (MC)): 7 % of control
- T/C (dose: 100.0 mg/kg/injection, vehicle: methylcellulose (MC)): 1 % of control

SMILES: Nc1cccc2c(=O)[nH][nH]c(=O)c12
- T/C (dose: 62.5 mg/kg/injection, vehicle: water): 71 % of control
- T/C (dose: 125.0 mg/kg/injection, vehicle: water): 82 % of control
- T/C (dose: 250.0 mg/kg/injection, vehicle: water): 59 % of control

SMILES: Brc1ncc2[nH]cnc2n1
- T/C [1]: 79 % of control
- T/C (dose: 75.0 mg/kg/injection, vehicle: methylcellulose (MC)): 75 % of control

SMILES: Nc1nc(NCc2ccccc2)cc(=O)[nH]1
- T/C (dose: 55.0 mg/kg/injection, vehicle: methylcellulose (MC)): 66 % of control
- T/C (dose: 165.0 mg/kg/injection, vehicle: methylcellulose (MC)): 49 % of control

SMILES: CC(=O)N(c1ccccc1)c1ccccc1
- T/C (dose: 3.12 mg/kg/injection, vehicle: other): 83 % of control
- T/C (dose: 6.25 mg/kg/injection, vehicle: other): 92 % of control
- T/C (dose: 12.5 mg/kg/injection, vehicle: other): 80 % of control
- T/C (dose: 25.0 mg/kg/injection, vehicle: other): 97 % of control

SMILES: CC(CNC(=O)CCOS(C)(=O)=O)NC(=O)CCOS(C)(=O)=O (stereo not given)
- T/C (dose: 14.0 mg/kg/injection, vehicle: carboxymethylcellulose (CMC)): 71 % of control
- T/C (dose: 28.0 mg/kg/injection, vehicle: carboxymethylcellulose (CMC)): 36 % of control and 60 % of control
- T/C (dose: 113.0 mg/kg/injection, vehicle: carboxymethylcellulose (CMC)): 2 % of control (2×) and 3 % of control
- T/C (dose: 225.0 mg/kg/injection, vehicle: carboxymethylcellulose (CMC)): 7 % of control

SMILES: Cc1cnc(Cl)nc1Sc1nc(N)nc2nc[nH]c12
- T/C (dose: 0.5 mg/kg/injection, vehicle: methylcellulose (MC)): 56 % of control
- T/C (dose: 0.75 mg/kg/injection, vehicle: carboxymethylcellulose (CMC)): 31 % of control
- T/C (dose: 1.0 mg/kg/injection, vehicle: carboxymethylcellulose (CMC)): 31 % of control and 38 % of control
- T/C (dose: 1.0 mg/kg/injection, vehicle: methylcellulose (MC)): 52 % of control
- T/C (dose: 1.5 mg/kg/injection, vehicle: carboxymethylcellulose (CMC)): 11 % of control
- T/C [2]: 8 % of control and 11 % of control
- T/C (dose: 3.0 mg/kg/injection, vehicle: methylcellulose (MC)): 35 % of control
- T/C [3]: 8 % of control

SMILES: OCC1CCC(n2cnc3c(=S)nc[nH]c32)C1 (stereo not given)
- T/C [4]: 89 % of control
- T/C [5]: 88 % of control
- T/C [6]: 48 % of control

SMILES: CN1CCC(OC(N)=O)CC1
- T/C (dose: 44.0 mg/kg/injection, vehicle: carboxymethylcellulose (CMC)): 84 % of control
- T/C (dose: 87.5 mg/kg/injection, vehicle: carboxymethylcellulose (CMC)): 96 % of control
- T/C [5]: 70 % of control
- T/C (dose: 155.0 mg/kg/injection, vehicle: carboxymethylcellulose (CMC)): 54 % of control
- T/C (dose: 175.0 mg/kg/injection, vehicle: carboxymethylcellulose (CMC)): 65 % of control
- T/C (dose: 230.0 mg/kg/injection, vehicle: carboxymethylcellulose (CMC)): 46 % of control
- T/C (dose: 525.0 mg/kg/injection, vehicle: carboxymethylcellulose (CMC)): 43 % of control

SMILES: NC(=O)CSc1nc(N)nc2nc[nH]c12
- T/C (dose: 63.0 mg/kg/injection, vehicle: carboxymethylcellulose (CMC)): 113 % of control
- T/C (dose: 125.0 mg/kg/injection, vehicle: carboxymethylcellulose (CMC)): 67 % of control
- T/C (dose: 250.0 mg/kg/injection, vehicle: carboxymethylcellulose (CMC)): 48 % of control
- T/C (dose: 500.0 mg/kg/injection, vehicle: carboxymethylcellulose (CMC)): 33 % of control

SMILES: CCOP(=O)(O)OCC1OC(n2cnc3c(=S)nc[nH]c32)C(O)C1O (stereo not given)
- T/C [2]: 12 % of control
- T/C [3]: 2 % of control
- T/C (dose: 12.0 mg/kg/injection, vehicle: carboxymethylcellulose (CMC)): 4 % of control

SMILES: OCCN1CCN(CC/C=C2/c3ccccc3Sc3ccc(Cl)cc32)CC1
- T/C (dose: 2.5 mg/kg/injection, vehicle: methylcellulose (MC)): 90 % of control and 88 % of control
- T/C (dose: 5.0 mg/kg/injection, vehicle: methylcellulose (MC)): 40 % of control and 42 % of control
- T/C (dose: 10.0 mg/kg/injection, vehicle: methylcellulose (MC)): 32 % of control
- T/C (dose: 20.0 mg/kg/injection, vehicle: methylcellulose (MC)): 17 % of control

SMILES: NC(N)=NC(CC(=O)O)c1ccccc1 (stereo not given)
- T/C (dose: 15.0 mg/kg/injection, vehicle: saline): 87 % of control
- T/C (dose: 31.0 mg/kg/injection, vehicle: saline): 99 % of control
- T/C (dose: 62.0 mg/kg/injection, vehicle: saline): 87 % of control
- T/C [7]: 107 % of control
- T/C [8]: 91 % of control

SMILES: O=C1C=C(N2CC2)C(=O)C(N2CC2)=C1N1CC1
- T/C (dose: 0.02 mg/kg/injection, vehicle: saline): 79 % of control
- T/C (dose: 0.05 mg/kg/injection, vehicle: saline): 61 % of control
- T/C (dose: 0.1 mg/kg/injection, vehicle: saline): 19 % of control
- T/C (dose: 3.0 micrograms/kg/injection, vehicle: carboxymethylcellulose (CMC)): 42 % of control
- T/C (dose: 5.0 micrograms/kg/injection, vehicle: carboxymethylcellulose (CMC)): 25 % of control
- T/C (dose: 5.0 micrograms/kg/injection, vehicle: saline): 65 % of control
- T/C (dose: 10.0 micrograms/kg/injection, vehicle: carboxymethylcellulose (CMC)): 39 % of control
- T/C (dose: 10.0 micrograms/kg/injection, vehicle: saline): 54 % of control
- T/C (dose: 20.0 micrograms/kg/injection, vehicle: carboxymethylcellulose (CMC)): 8 % of control
- T/C (dose: 20.0 micrograms/kg/injection, vehicle: saline): 59 % of control
- T/C (dose: 25.0 micrograms/kg/injection, vehicle: carboxymethylcellulose (CMC)): 70 % of control
- T/C (dose: 31.0 micrograms/kg/injection, vehicle: carboxymethylcellulose (CMC)): 100 % of control
- T/C (dose: 40.0 micrograms/kg/injection, vehicle: saline): 33 % of control
- T/C (dose: 62.0 micrograms/kg/injection, vehicle: carboxymethylcellulose (CMC)): 69 % of control
- T/C (dose: 125.0 micrograms/kg/injection, vehicle: carboxymethylcellulose (CMC)): 63 % of control

SMILES: NCC(=O)Nc1ccc(O)cc1
- T/C [6]: 22 % of control and 42 % of control

SMILES: OC1CC([CH2][Hg][I])OC([CH2][Hg][I])C1 (stereo not given)
- T/C (dose: 25.0 mg/kg/injection, vehicle: carboxymethylcellulose (CMC)): 60 % of control
- T/C [4]: 30 % of control

SMILES: NC(CO)(CO)CO
- T/C [7]: 72 % of control
- T/C [8]: 69 % of control
- T/C (dose: 500.0 mg/kg/injection, vehicle: saline): 75 % of control
- T/C (dose: 1000.0 mg/kg/injection, vehicle: saline): 84 % of control
